ChEMBL document CHEMBL4840339, “A naphthyridine-indole ligand for selective stabilization of G-quadruplexes and conformational conversion of hybrid topology” (Bioorg Med Chem, 2021)
Active and inactive are the calls of the source. No cut-off for these calls is given here.

Experiments:
Quadruplex DNA [1] = assay: Binding affinity to Tel23 G4 quadruplex DNA (unknown origin) assessed as conversion from hybrid topology to parallel topology by measuring positive signal at 266 nm at 10 to 100 uM by circular dichroism spectroscopy; type: nucleic-acid assay; details: dose 10-100 µM
HeLa [2] = assay: Induction of apoptosis in human HeLa cells assessed as necrotic cells at 6 uM after 24 hrs by Annexin V-FITC/PI staining based flow cytometric analysis (reference value: 0.42 %); type: functional
Quadruplex DNA [3] = assay: Stabilization of Tel26 G4 quadruplex DNA (unknown origin) assessed as thermal stability by measuring increase in melting temperature by UV melting assay; type: nucleic-acid assay; details: dose 5.0 µM
HeLa [4] = assay: Induction of cell cycle arrest in human HeLa cells assessed as G0/1 cell population level at 6 uM incubated for 24 hrs by propidium iodide /RNase staining based flow cytometry (reference value: 38 %); type: functional
HeLa [5] = assay: Cytotoxicity against human HeLa cells assessed as […] in cell viability measured after 48 hrs by MTT assay; type: functional, cell-based
HeLa [6] = assay: Induction of apoptosis in human HeLa cells assessed as viable cells at 6 uM after 24 hrs by Annexin V-FITC/PI staining based flow cytometric analysis (reference value: 95.8 %); type: functional; details: read-out: Activity
Quadruplex DNA [7] = assay: Displacement of thiazole orange from Tel26 G4 quadruplex DNA (unknown origin) assessed as relative affinity by fluorescent intercalator displacement assay; type: nucleic-acid assay
Quadruplex DNA [8] = assay: Binding affinity to c-KIT1 G4 quadruplex DNA (unknown origin) assessed as conversion from hybrid topology to parallel topology by measuring positive signal at 266 nm at 10 to 100 uM by circular dichroism spectroscopy; type: nucleic-acid assay; details: dose 10-100 µM
HeLa [9] = assay: Induction of apoptosis in human HeLa cells assessed as late apoptotic cells at 6 uM after 24 hrs by Annexin V-FITC/PI staining based flow cytometric analysis (reference value: 0.42 %); type: functional
Quadruplex DNA [10] = assay: Stabilization of F-Tel21-T G4 quadruplex DNA (unknown origin) assessed as thermal stability by measuring normalized intensity at 2 uM by FRET assay; type: nucleic-acid assay
Quadruplex DNA [11] = assay: Binding affinity to G4 quadruplex DNA (unknown origin) assessed as assessed as compound-DNA complex formation by 1H-NMR spectra analysis; type: nucleic-acid assay
Quadruplex DNA [12] = assay: Binding affinity to c-MYC G4 quadruplex DNA (unknown origin) assessed as conversion from hybrid topology to parallel topology by measuring positive signal at 266 nm at 10 to 100 uM by circular dichroism spectroscopy; type: nucleic-acid assay; details: dose 10-100 µM
HeLa [13] = assay: Induction of cell cycle arrest in human HeLa cells assessed as S cell population level at 6 uM incubated for 24 hrs by propidium iodide /RNase staining based flow cytometry (reference value: 36 %); type: functional
Quadruplex DNA [14] = assay: Binding affinity to Bcl-2 G4 quadruplex DNA (unknown origin) assessed as conversion from hybrid topology to parallel topology by measuring positive signal at 266 nm at 10 to 100 uM by circular dichroism spectroscopy; type: nucleic-acid assay; details: dose 10-100 µM
Quadruplex DNA [15] = assay: Stabilization of G4 quadruplex DNA in human HeLa cells assessed as BG4 foci formation at 6 uM measured after 24 hrs by confocal microscopic analysis; type: cell-based
dsDNA = assay: Stabilization of dsDNA (unknown origin) assessed as thermal stability by measuring increase in melting temperature by UV melting assay; type: nucleic-acid assay
Quadruplex DNA [16] = assay: Binding affinity to ds26 non-G4 DNA (unknown origin) assessed as conversion from hybrid topology to parallel topology by measuring positive signal at 266 nm at 10 to 100 uM by circular dichroism spectroscopy; type: nucleic-acid assay; details: dose 10-100 µM
HeLa [17] = assay: Induction of apoptosis in human HeLa cells assessed as early apoptotic cells at 6 uM after 24 hrs by Annexin V-FITC/PI staining based flow cytometric analysis (reference value: 3.28 %); type: functional
HeLa [18] = assay: Induction of apoptosis in human HeLa cells assessed as increase in caspase 3 level at 4 to 6 uM measured after 48 hrs; type: functional, cell-based; details: dose 4-6 µM
Quadruplex DNA [19] = assay: Binding affinity to Tel26 G4 quadruplex DNA (unknown origin) assessed as conversion from hybrid topology to parallel topology by measuring positive signal at 266 nm at 10 to 100 uM by circular dichroism spectroscopy; type: nucleic-acid assay; details: dose 10-100 µM
Quadruplex DNA [20] = assay: Binding affinity to Tel26 G4 quadruplex DNA (unknown origin) assessed as positive signal at 266 nm measured up to 90 deg C at 100 uM by variable temperature circular dichroism spectroscopy; type: nucleic-acid assay
Quadruplex DNA [21] = assay: Stabilization of Tel26 G4 quadruplex DNA (unknown origin) assessed as thermal stability by measuring increase in melting temperature at 100 uM by variable temperature circular dichroism spectroscopy; type: nucleic-acid assay
HeLa [22] = assay: Induction of cell cycle arrest in human HeLa cells assessed as G2/M cell population level at 6 uM incubated for 24 hrs by propidium iodide /RNase staining based flow cytometry (reference value: 36 %); type: functional
Quadruplex DNA [23] = assay: Stabilization of F-Tel21-T G4 quadruplex DNA (unknown origin) assessed as thermal stability by measuring normalized intensity in presence of 10 to 50 eq dsDNA at 2 uM by FRET-based competition assay; type: nucleic-acid assay

Activity (Quadruplex DNA [1]): Active | Activity (Quadruplex DNA [3]): Active | IC50 (Quadruplex DNA [7]): 6.7 µM | Activity (Quadruplex DNA [8]): inactive | Activity (Quadruplex DNA [10]): Active | Activity (Quadruplex DNA [11]): Active | Activity (Quadruplex DNA [12]): inactive | Activity (Quadruplex DNA [14]): Active | Activity (dsDNA): inactive | Activity (Quadruplex DNA [16]): inactive | Activity (Quadruplex DNA [19]): Active | Activity (Quadruplex DNA [20]): Active | ΔTm (Quadruplex DNA [21]): 37 °C | Activity (Quadruplex DNA [23]): Active
Structure (SMILES): CN(C)CCOc1ccc2c(ccn2-c2ccc3ccc(-n4ccc5cc(OCCN(C)C)ccc54)nc3n2)c1
Activity (HeLa [2]): 1.49% | Activity (HeLa [4]): 57% | IC50 (HeLa [5]): 4.3 µM | viability at 6 µM (HeLa [6]): 61.8% | Activity (HeLa [9]): 16.6% | Activity (HeLa [13]): 33% | Activity (Quadruplex DNA [15]): Active | Activity (HeLa [17]): 20.1% | Activity (HeLa [18]): Active | Activity (HeLa [22]): 10%
